Assay results published in patent US8759014B2, “Methods of obtaining antigen-specific T cell populations” (The United States of America, as represented by the …, priority 2008, dated 2014).

Assays:
[1] = tested on: PBMC from HLA-A2+ metastatic melanoma patients
[2] = tested on: PBMC sub-populations; test: HT-qPCR IFN-γ screen of PBMC sub-populations contacted with candidate mesothelin peptides; assay type: cell-based, human; settings: highest IFN-γ mRNA stimulation index of PBMC sub-populations contacted with the peptide and IL-2; SI <2 = not reactive
Procedure: PBMCs obtained by leukapheresis from HLA-A2+ metastatic melanoma patients are used to establish 96 independent subpopulations cultured in complete medium (CM) consisting of RPMI 1640 supplemented with 10% heat-inactivated fetal bovine serum, 2 mM L-glutamine (Invitrogen, Carlsbad, Calif.), 50 units/mL penicillin (Invitrogen), 50 μg/mL streptomycin (Invitrogen), 50 μg/mL gentamicin (Invitrogen), 10 mM Hepes (Invitrogen), and 250 ng/mL Amphotericin B (Invitrogen), along with 10% heat-inactivated human AB serum (Gemini Bio-Products, Woodland, Calif.). […] The SI reactivities for the 96 wells are stratified by their magnitude and the most reactive subpopulations are selected for limiting dilution cloning.
Mesothelin peptides of the following amino acid sequence are synthesized as essentially described in Example 1: […] (SEQ ID NO: 12), […] (SEQ ID NO: 11), […] (SEQ ID NO: 13), […] (SEQ ID NO: 14), […] (SEQ ID NO: 15), […] (SEQ ID NO: 16), […] (SEQ ID NO: 17), […] (SEQ ID NO: 18), […] (SEQ ID NO: 19), and […] (SEQ ID NO: 20). The peptides are used to contact PBMC sub-populations along with IL-2 in accordance with the procedures described in Example 4. HT-qPCR is performed on a sample of each sub-population to determine the expression of IFN-γ by the contacted PBMC sub-populations.

Compound | number of patients with at least one microculture with significant peptide reactivity (SI >2) [1] [patients] | percent of patients with individual wells with peptide reactivity above background ([1]; 17 HLA-A2+ melanoma patients (8 for gp100154-162), 1 μM peptide, 6 days, IL-2 90 IU/ml) [%] | Highest SI (Day 14) [2]
CC[C@H](C)[C@H](N)C(=O)N[C@H](C(=O)N[C@@H](CC(=O)O)C(=O)N[C@@H](CCC(N)=O)C(=O)N[C@H](C(=O)N1CCC[C@H]1C(=O)N[C@@H](Cc1ccccc1)C(=O)N[C@@H](CO)C(=O)N[C@H](C(=O)O)C(C)C)C(C)C)[C@@H](C)O [gp100209-217] | 16 | 94 | –
FLLFSLGWV | – | – | 29
LIFYKKWEL | – | – | <2
LLATQMDRV | – | – | <2
LLGFPCAEV | – | – | <2
LPLDLLLFL | – | – | <2
NMNGSEYFV | – | – | *<2
RLSEPPEDL | – | – | <2
SLLFLLFSL | – | – | 119
VLLPRLVSC | – | – | <2
VLPLTVAEV | – | – | <2
